Experimental data as given in US4087418A, “Hexapeptides and methods for their production” (Parke, Davis & Company, priority 1976, dated 1978).

Tested on: LRF (luteinizing hormone release factor) induced luteinizing hormone (LH) release
Experiment: In vitro LRF antagonist test in rat anterior pituitary cell cultures
Format: cell-based
Details: LRF alone, Molar Conc. 2.5×10^-10 (stimulation control)
From the text: Hexapeptides of this invention were screened for LRF antagonist activity in vitro using rat anterior pituitary cell cultures as described by Vale et. al. [Endocrinology, 91, 562 (1972)]. The inhibition of LRF (luteinizing hormone release factor) induced luteinizing hormone (LH) release into the culture medium is the endpoint in this in vitro bioassay.

Q: “LRF Control: luteinizing hormone releasing factor, also referred to as luteinizing hormone releasing hormone, LH-RH; stimulates secretion of luteinizing hormone (QHWSYGLRPG; Gonadoliberin-1; UniProt P01148 24-33, looked up)” was tested. Which “LH Value” did it give?
A: 38.98 ng/mL
